Series [1] concerns H1299 human non-small cell lung carcinoma cell line. Nature of the series: Co-culture of activated Jurkat cells with H1299 lung cancer cells, cell death by flow cytometry. Format: cell-based. The conditions noted are these: for cell death in H1299 cells: Jurkat co-culture, 48 hours; for increase in cell death in H1299 cells: co-cultured with nonspecifically activated Jurkat cells, preliminary data. On the procedure:
(§1) • H1299 human non-small cell lung carcinoma cell line (ATCC) • Jurkat cells (Human T lymphoblasts, ATCC) • Primary cultured murine CD8^+ T cell primed with H1299 cell lysate (H1299 cell antigens)
Co-culture assay procedure. Dead cell populations were measured by flow cytometry at 48 hours post-co-culture using propidium iodide (PI) staining.

Series [2] shares this test system. As to the kind of experiment: Co-culture of H1299 cell antigen-specific T cells with H1299 lung cancer cells, cell death by flow cytometry. The conditions noted are these: for cell death in H1299 cells: antigen-specific T cell co-culture, 48 hours. Format: cell-based.
From the text: as §1
Mice were immunized with H1299 cells via tail vein injection. T cells were extracted from spleen, purified, and expanded by co-culturing with dendritic cells (DCs) stimulated with H1299 cell lysate. Expanded T cells were used in co-culture assay.

Series [3] relates to CT26 murine colon carcinoma cells. As to the kind of experiment: MTT viability of CT26 cells without T cells. It is filed as cell-based, mouse. On the procedure:
Evaluation of the Effect of PD-L1ip3 Peptide or Gene Transduction by Ad-PD-L1ip3 on Murine Colon Carcinoma Cells in Cell Culture The CT26 murine colon carcinoma cells (1,000 cells/well) were seeded into 96-well plate.
After 24 h, these cells were treated directly with PD-L1ip3 in peptide form (0.1-10 μg/ml) or indirectly with the PD-L1ip3 gene by Ad-PD-L1ip3 transduction (10, 20 and 50 MOI). The growth of the cells was evaluated by MTT assay 24-72 h after the treatments as described previously.
To evaluate therapeutic potential and cytotoxicity of the PD-L1ip3 peptide and transduction by Ad-PD-L1ip3, cell viability of CT26 cells was analyzed using MTT assay in the presence of mIFNγ (25 ng/ml), which was used to increase PD-L1 expression in cancer cells. The scrambled sequence version of PD-L1ip3 (PD-L1ip3SC) and the adenovirus carrying the corresponding scrambled sequence gene (Ad-PD-L1ip3SC) were used as negative controls.

For series [4], the system named is murine LLC lung carcinoma cells. Nature of the series: Cytotoxicity of antigen-primed CD8+ T cells toward LLC cells in co-culture. It is filed as cell-based, mouse. The conditions noted are these: 10 μM, 1:16 ratio, 18 and 36 hrs; positive control anti-PD-L1 antibody. The protocol: Generation of LLC cell antigen primed CD8^+ T cells in vivo: Mice were subcutaneously injected with LLC lysate (0.5×10^6 cells/mouse in 100 μl) at Day 0. X-ray (100 Gy) irradiated LLC cells were cocultured with JAWSII immature dendritic cells (JAWS-irrLLC) at a 1:1 ratio for 48 hrs in the presence of LPS (1 μg/ml). The cells were then intravenously injected into mice via tail vein (0.5×10^4 cells/mouse in 200 μl) at Day 7. At Day 21, the splenocytes were harvested and CD8^+ T cells (AP-CD8^+ T cells) were isolated using commercially available isolation kit.
Evaluation of T cell-induced death of lung carcinoma cells in co-culture: Permanently GFP-expressing LLC cells (1×10^4 cells) were treated with murine IFNγ (25 ng/ml) for 48 hrs. The cells were treated with 10 μM PD-L1ip3. PD-L1ip3SC (10 μM) and mouse anti-PD-L1 antibody (αPD-L1: 0.5 or 1.0 μg/ml) were used as control. The cells were then cocultured with antigen primed CD8^+ T cells 1:16 ratio. The cytotoxicity of AP-CD8^+ T cells toward LLC cells at 18 and 36 hrs after coculture was determined by flow cytometry.

A further series addresses T1, human PD-L1 (Homo sapiens, UniProt Q9NZQ7).
T1 construct: biotin (biotinylated); purchased R&D Systems (Minneapolis, Minnesota)
As to the kind of experiment: Bio-layer interferometry binding to biotinylated PD-L1. The settings on record: read-out: dissociation constant KD. On the procedure:
(§2) For each experiment, the BLItz machine was fitted with a fresh streptavidin biosensor tip (FortéBio). All tips were solvated in PBS buffer for 15-30 min before the experiments. The peptide was solvated at a concentration of approximately 1 mg/ml. The precise concentration of this stock solution (0.922 mg/ml) was obtained using the Pierce BCA Protein Assay Kit (Thermo Fisher Scientific) and multiple dilutions were made (corresponding to […]). A solution of biotinylated PD-L1 was applied to the biosensor tip during the loading phase of each experiment. PBS buffer (ix) was used for the baseline.

In series [5] the test system is CT26 murine colon carcinoma cells. As to the kind of experiment: T cell-induced death of CT26 cells in co-culture with antigen-primed CD8+ T cells (flow cytometry). Format: cell-based, mouse. The conditions noted are these: peptide 10 μM, CT26:T cell 1:16. The protocol:
a. Generation of CT26 cell antigen-specific CD8^+ T cells in vivo: First, the mice were subcutaneously (SQ) injected with CT26 cell lysate (0.5×10^6 cells/mouse in 200 μl PBS) at Day 0. JAWSII immature dendritic cells and CT26 cells previously irradiated with an X-ray dose of 100 Gy were cocultured at a 1:1 ratio for 48 h with an additional treatment of LPS (1 μg/ml). The cells (0.5×10^6 cells/mouse in 200 μl PBS) were collected and administered IV via tail vein to the mice at Day 7. At Day 21, the splenocytes were harvested and the CT26 antigen-specific CD8^+ T cells were labeled using MojoSort™ Mouse CD8 T Cell Isolation Kit (Biolegend, San Diego, CA) and isolated using magnetic beads-based separation protocol with MACS® Column (Miltenyi Biotec, Bergisch Gladbach, Germany) according to the manufacturer's instructions.
b. Evaluation of T cell-induced death of colon carcinoma cells in co-culture: Permanently GFP-expressing CT26 cells (GFP-CT26) produced by GFP-lentivirus vector transduction were seeded into 12 well-plate (1×10^4 cells/well) in the presence of murine interferon gamma (mIFNγ) at 25 ng/ml for 24 h. […] The effect of PD-L1ip3 in peptide form or gene transduction by Ad-PD-L1ip3 on CT26 cell death was analyzed by flow cytometry using LIVE/DEAD™ Fixable Violet Dead Cell Stain Kit (Invitrogen Corp). […]

The next series relates to CT26 cell tumors. As to the kind of experiment: CT26 subcutaneous allograft tumor growth in Balb/c mice. Format: in vivo, mouse. The protocol:
The anti-tumor effect of Ad-PD-L1ip3 and PD-L1ip3 in peptide form was evaluated in Balb/c mice using a CT26 murine colon carcinoma allograft model. The CT26 cells were transduced with 100 MOI of Ad-PD-L1ip3 or Ad-PD-L1ip3SC. At 24 h after transduction, the cells were suspended into 0.6% agarose dissolved in RPMI 1640. After filling agarose-cell mixture into 1 ml syringe equipped with 27G needle, it was solidified on ice. Mice were anesthetized with isoflurane and injected subcutaneously into the back with a 5×10^5 CT26 cells in 50 μl cell-agarose mixture. The intraperitoneal administration of PD-L1ip3 peptide (10 mg/kg) was carried out at 1 week after CT26 inoculation for 13 days (every day, totaling 13 injections). The PBS control was injected intraperitoneally with the same schedule. For the pre-immunization study, CT26 lysate (1×10^6 cells/100 μl PBS) were injected subcutaneously, 3 times with 1-week interval. The CT26 lysate was made by 3 times freeze-thaw cycles using liquid nitrogen. The mouse body weights were monitored at 2-day intervals. All mice were sacrificed […] after CT26 inoculation by cervical dislocation after exposure to saturated C02. The tumor size was measured by caliper every 2 days and the volume was calculated using the formula 0.5×(short diameter)^2×(long diameter). The tumors were weighed and fixed in 10% formalin for histological analysis.

Series [6] concerns the target T2, Biotinylated human PD-L1 (R&D Systems) (human, UniProt Q9NZQ7 19-239, limits assumed, biotinylated (site not stated)).
T2 construct: Bought reagent, loaded on a streptavidin biosensor tip for bio-layer interferometry
Nature of the series: bio-layer interferometry (BLItz), biotinylated PD-L1 on streptavidin tip, peptide in solution; negative control; scrambled peptide, negative control. On the procedure:
as §2
The peptide was synthesized commercially and the dissociation constant was determined by bio-layer interferometry.

Setting [7] is: peptide form 0.1-10 μg/ml, mIFNγ 25 ng/ml, 24-72 h, no T cells.

“Also recorded” adds a separate entry of the source.

T2 sequence (Q9NZQ7 19-239 limits assumed): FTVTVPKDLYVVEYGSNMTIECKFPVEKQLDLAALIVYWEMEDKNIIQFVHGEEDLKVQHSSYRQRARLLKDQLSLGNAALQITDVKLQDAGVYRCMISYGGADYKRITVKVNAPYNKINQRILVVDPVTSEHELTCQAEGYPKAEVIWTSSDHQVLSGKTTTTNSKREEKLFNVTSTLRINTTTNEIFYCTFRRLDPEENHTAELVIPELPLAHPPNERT

Turning to H-GTRLKPLIICVQWPGL-OH [PD-L1ip3], the “cell death in H1299 cells” value in series [1] was “only minor increases of cell death”; in series [2] it was “clear increases of cell death”. Besides, the “increase in cell death in H1299 cells” value in series [1] was 30%; in series [2] (co-cultured with H1299 cell antigen-primed T lymphocytes), 50%. Also, the “viability of CT26 cells (MTT)” value in series [3] (setting [7]) is “not affected”. The “cytotoxicity of antigen-specific CD8+ T cells toward LLC cells” value in series [4] is on record as “Increased; also recorded: as good as or better than the positive control”. Also, on human PD-L1, the Kd is 0.033 ± 0.003 mM. Further, the “T cell-induced cell death of CT26 cells vs PBS” value in series [5] is recorded as “markedly increased”. In addition, the average tumor volume in the series with CT26 cell tumors (mice pre-treated with CT26 cell lysate 3 times, Ad 100 MOI, peptide 10 mg/kg/day i.p., untreated 729.6±310.3) is on record as 607.5±220.1 mm^3. Also, the “change in tumor growth vs untreated CT26 cells” value in the series with CT26 cell tumors (no lysate pretreatment) was “nor PD-L1ip3 in peptide form alone showed a statistically significant change in tumor growth”.

PLDIRDRVHVEKSAAS [PD-L1ip4]: the “cell death in H1299 cells” value in series [1] and in series [2] was “did not alter T cell-dependent death” each time.

Turning to “H-VLIKIPWLRLPGCGTQ-OH [PD-L1ip3SC, reference compound]”, the “cell death in H1299 cells” value in series [1] is listed as “only minor increases of cell death”. For the same molecule, in series [1], the “increase in cell death in H1299 cells” value was 30%. The “viability of CT26 cells (MTT)” value is recorded as “slight decrease of cell viability” in series [3] (10 μg/ml, 72 h, not significantly different from PBS) and “not affected” in series [3] (setting [7]).

B1: PD-L1ip3SC (scrambled analogue of PD-L1ip3) (peptide)
peptide: VLIKIPWLRLPGCGTQ
notes: Negative control in BLI; also called scrambled peptide
For the molecule B1, the Kd in series [6] was around 50 mM.

The values above are taken from patent US20250066420A1, “PD-L1 INHIBITORY PEPTIDE FOR CANCER IMMUNOTHERAPY” (Kansas State University Research Foundation, priority 2021, published 2025).
